Assay [1] has as its target T1, GASC1 (KDM4C) (Homo sapiens, UniProt Q9H3R0).
T1 construct: Full length; host or cells: U2OS
T1 sequence (Q9H3R0 1-1056): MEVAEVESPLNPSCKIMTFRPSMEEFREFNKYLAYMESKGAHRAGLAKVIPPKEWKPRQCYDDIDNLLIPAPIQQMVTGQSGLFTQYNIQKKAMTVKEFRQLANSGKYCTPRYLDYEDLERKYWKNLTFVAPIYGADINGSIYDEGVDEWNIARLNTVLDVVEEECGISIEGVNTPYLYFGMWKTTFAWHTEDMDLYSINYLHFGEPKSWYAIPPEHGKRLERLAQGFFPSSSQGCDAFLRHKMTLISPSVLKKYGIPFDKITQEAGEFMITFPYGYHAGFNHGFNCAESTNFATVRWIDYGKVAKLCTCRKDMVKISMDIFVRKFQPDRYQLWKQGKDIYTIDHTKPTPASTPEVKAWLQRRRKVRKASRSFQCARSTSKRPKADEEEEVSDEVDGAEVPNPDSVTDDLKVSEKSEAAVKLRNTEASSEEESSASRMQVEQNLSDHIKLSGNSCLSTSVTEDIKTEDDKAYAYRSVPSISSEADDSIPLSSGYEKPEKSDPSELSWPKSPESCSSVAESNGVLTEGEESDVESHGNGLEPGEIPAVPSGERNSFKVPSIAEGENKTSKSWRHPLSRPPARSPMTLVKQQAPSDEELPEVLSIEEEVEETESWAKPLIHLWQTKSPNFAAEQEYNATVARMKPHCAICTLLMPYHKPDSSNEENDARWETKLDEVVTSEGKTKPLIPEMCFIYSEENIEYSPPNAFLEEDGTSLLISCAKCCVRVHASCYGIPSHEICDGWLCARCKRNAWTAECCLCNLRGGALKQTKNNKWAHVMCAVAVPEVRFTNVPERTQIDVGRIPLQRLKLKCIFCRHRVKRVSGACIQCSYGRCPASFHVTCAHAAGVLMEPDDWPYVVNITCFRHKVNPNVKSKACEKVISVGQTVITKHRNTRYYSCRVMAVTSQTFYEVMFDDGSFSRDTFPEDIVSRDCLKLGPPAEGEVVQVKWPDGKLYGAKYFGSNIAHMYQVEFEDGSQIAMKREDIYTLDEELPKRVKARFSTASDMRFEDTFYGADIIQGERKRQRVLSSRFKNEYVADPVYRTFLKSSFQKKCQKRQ
Nature of the assay: Immunofluorescence assay in U2OS cells transfected with pCMVHA JMJD2C (H3K9me3 mark). The settings on record: 20 hours. It is filed as cell-based. On the procedure:
(§1) U2OS cells were seeded 24 hours before transfection. Transfection was performed with Fugene HD transfection reagent as recommended by the manufacturer. 6 hours after transfection, the cells were harvested and seeded into multi well plates into media containing compound. The media used was DMEM containing 5% FBS and pen/strep. 20 hours after incubation of cells with compounds, the cells were washed once in PBS, harvested by fixation with formaldehyde 4% aqueous solution, and washed 2 times in PBS. Subsequently, the cells were permeabilized in PBS with 0.2% Triton X-100 for 10 min at room temperature. Blocking was performed in PBS with 0.2% Triton X-100 and 5% FBS for 45 min at room temperature. The cells were incubated with primary antibodies diluted 1 μg/ml in blocking solution over night at 4° C. The primary antibodies used in the assays were HA.11 (Covance, MMS-101P) and the antibody detecting the mark specified in the Table 6 below. After incubation with primary antibodies, the cells were washed 3 times with PBS, incubated with secondary antibodies diluted 1:1000 (Alexa fluor 594 goat anti rabbit IgG, Invitrogen, A11012; Alexa flour 488 donkey anti mouse IgG, Invitrogen, A21202) and Hoechst, 20 μg/ml (Sigma, 33342) in blocking solution, and washed again 3 times with PBS. Finally, PBS was added and high throughput imaging and analysis were performed by an IN Cell Analyzer 1000 (GE Healthcare). The robot software analyzed individual cells and divided these into HA^+ (transfected cells) and HA^− (non-transfected cells). The IC50 values in Table 7 below were based on an average measure of the staining of the mark specified in the Table 6 below in the transfected cells.

The target in assay [2] is T2, PLU1 (KDM5B) (Homo sapiens, UniProt Q9UGL1).
T2 construct: (1-752); host or cells: U2OS
T2 sequence (Q9UGL1 1-752): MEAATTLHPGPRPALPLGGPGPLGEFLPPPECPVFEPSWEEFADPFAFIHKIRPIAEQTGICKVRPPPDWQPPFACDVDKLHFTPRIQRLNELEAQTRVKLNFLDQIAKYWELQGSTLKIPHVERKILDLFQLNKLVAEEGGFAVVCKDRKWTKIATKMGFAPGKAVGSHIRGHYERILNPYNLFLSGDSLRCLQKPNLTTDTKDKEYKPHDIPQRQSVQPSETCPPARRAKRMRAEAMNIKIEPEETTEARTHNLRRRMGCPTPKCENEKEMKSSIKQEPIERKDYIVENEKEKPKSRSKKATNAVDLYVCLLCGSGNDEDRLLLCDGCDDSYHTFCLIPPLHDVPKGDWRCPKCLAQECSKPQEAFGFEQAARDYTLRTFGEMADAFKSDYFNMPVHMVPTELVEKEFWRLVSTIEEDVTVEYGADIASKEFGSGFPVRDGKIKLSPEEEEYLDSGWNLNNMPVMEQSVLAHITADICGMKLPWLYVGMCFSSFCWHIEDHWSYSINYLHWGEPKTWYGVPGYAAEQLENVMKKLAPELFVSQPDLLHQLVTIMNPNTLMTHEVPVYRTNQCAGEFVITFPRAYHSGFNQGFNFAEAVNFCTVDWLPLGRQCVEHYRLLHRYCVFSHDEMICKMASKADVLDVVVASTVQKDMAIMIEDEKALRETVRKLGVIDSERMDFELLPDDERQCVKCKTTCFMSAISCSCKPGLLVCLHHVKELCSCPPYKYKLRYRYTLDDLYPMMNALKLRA
Nature of the assay: Immunofluorescence assay in U2OS cells transfected with pCMVHA PLU1 (H3K4me2 mark). It is filed as cell-based. Particulars: 20 hours. On the procedure:
as §1

The structures appear in SMILES notation. Bounds are passed on as bounds.

One may read the IC50 as the midpoint of a concentration-inhibition curve. Higher therefore signals weaker potency in that assay. Take `CN(C)CCCCNCc1cc(C(=O)O)ccn1` [2-({[4-(dimethylamino)butyl]amino}methyl)pyridine-4-carboxylic acid]: the IC50 in assay [1] was above 50 µM; in assay [2], 1 to 50 µM.

As to `O=C(O)c1ccnc(CNCC[C@@H]2CCCN2Cc2ccccc2)c1` [2-[({2-[(2S)-1-benzylpyrrolidin-2-yl]ethyl}amino)methyl] pyridine-4-carboxylic acid], the IC50 in assay [1] was above 50 µM; in assay [2] it was 1 to 50 µM.

`O=C(O)c1ccnc(CNCCCn2ccnc2)c1` [drawing 296, 2-({[3-(1H-imidazol-1-yl)propyl]amino}methyl) pyridine-4-carboxylic acid]: the IC50 in assay [1] was above 50 µM; in assay [2], 1 to 50 µM.

Take `CN(C)CCNCc1cc(C(=O)O)ccn1` [drawing 297, 2-({[2-(dimethylamino)ethyl]amino}methyl)pyridine-4-carboxylic acid]: the IC50 in assay [1] and in assay [2] was 1 to 50 µM in each case.

For the molecule `O=C(O)c1ccnc(CNC[C@@H](O)CO)c1` [drawing 298, 2-({[(2R)-2,3-dihydroxypropyl]amino}methyl)pyridine-4-carboxylic acid], the IC50 in assay [1] and in assay [2] was above 50 µM in each case.

As to `O=C(O)c1ccnc(CNCC2CC2)c1` [drawing 299, 2-{[(cyclopropylmethyl)amino]methyl}pyridine-4-carboxylic acid], the IC50 in assay [1] was above 50 µM; in assay [2], 1 to 50 µM.

As to `CN(C)CCN(C)Cc1cc(C(=O)O)ccn1` [drawing 301, 2-({[2-(dimethylamino)ethyl](methyl)amino}methyl)pyridine-4-carboxylic acid], the IC50 in assay [1] and in assay [2] was above 50 µM throughout.

As for `C#CCN(C)Cc1cc(C(=O)O)ccn1` [drawing 302, 2-{[methyl(prop-2-yn-1-yl)amino]methyl}pyridine-4-carboxylic acid], the IC50 in assay [1] and in assay [2] was above 50 µM each time.

Take `O=C(O)c1ccnc(CNCc2ccco2)c1` [drawing 303, 2-{[(furan-2-ylmethyl)amino]methyl}pyridine-4-carboxylic acid]: in assay [1], the IC50 was in the range of 1 to 50 µM.

Regarding `O=C(O)c1ccnc(CNCC(=O)N2CCCC2)c1` [drawing 305, 2-({[2-oxo-2-(pyrrolidin-1-yl)ethyl]amino}methyl) pyridine-4-carboxylic acid], the IC50 in assay [1] is 1 to 50 µM; in assay [2], above 50 µM.

Regarding `CCCCN(C)C(=O)CNCc1cc(C(=O)O)ccn1` [drawing 306, 2-[({[butyl(methyl)carbamoyl]methyl}amino)methyl] pyridine-4-carboxylic acid], the IC50 in assay [1] is 1 to 50 µM; in assay [2], above 50 µM.

In the case of `Cn1c(CNCc2cc(C(=O)O)ccn2)nc2ccccc21` [drawing 307, 2-({[(1-methyl-1H-1,3-benzodiazol-2-yl)methyl)amino}methyl) pyridine-4-carboxylic acid], the results for the IC50 in assay [1] and in assay [2] were above 50 µM and 1 to 50 µM, respectively.

For the molecule `COCCN1CCN(C(=O)CNCc2cc(C(=O)O)ccn2)CC1` [drawing 308, 2-[({2-[4-(2-methoxyethyl)piperazin-1-yl]-2-oxoethyl}amino)methyl] pyridine-4-carboxylic acid], the IC50 in assay [1] and in assay [2] was above 50 µM throughout.

`C=CCN(CC=C)C(=O)CNCc1cc(C(=O)O)ccn1` [drawing 309, 2-[({[bis(prop-2-en-1-yl)carbamoyl]methyl}amino)methyl]pyridine-4-carboxylic acid]: the IC50 in assay [1] and in assay [2] was 1 to 50 µM each time.

On to `O=C(O)c1ccnc(CNCCCNCCCN2CCCC2)c1` [drawing 310, 2-{[(3-{[3-(pyrrolidin-1-yl)propyl]amino}propyl)amino]methyl}pyridine-4-carboxylic acid], for which the 50% inhibitory concentration (IC50) in assay [1] and in assay [2] was above 50 µM throughout.

For `CN(CCC(N)=O)C(=O)CNCc1cc(C(=O)O)ccn1` [drawing 311, 2-[({[(2-carbamoylethyl)(methyl)carbamoyl]methyl}amino)methyl]pyridine-4-carboxylic acid], in assay [1], the IC50 is above 50 µM.

Take `CN(CCCc1nccn1C)C(=O)CNCc1cc(C(=O)O)ccn1` [drawing 312, 2-{[({methyl[3-(1-methyl-1H-imidazol-2-yl)propyl]carbamoyl}methyl)amino]methyl}pyridine-4-carboxylic acid]: the IC50 in assay [1] and in assay [2] was 1 to 50 µM throughout.

Regarding `CCN1CCCC1CNC(=O)CNCc1cc(C(=O)O)ccn1` (centres unmarked) [drawing 313, 2-{[({[(1-ethylpyrrolidin-2-yl)methyl]carbamoyl}methyl)amino]methyl}pyridine-4-carboxylic acid], the IC50 in assay [1] was above 50 µM; in assay [2], 1 to 50 µM.

As to `CN(Cc1ccnn1C)C(=O)CNCc1cc(C(=O)O)ccn1` [drawing 314, 2-{[({methyl[(1-methyl-1H-pyrazol-5-yl)methyl]carbamoyl}methyl)amino]methyl}pyridine-4-carboxylic acid], the IC50 in assay [1] and in assay [2] was above 50 µM in each case.

Consider `O=C(O)c1ccnc(CN[C@@H]2CCN(CCCc3ccccc3)C2)c1` [drawing 315, 2-({[(3R)-1-(3-phenylpropyl)pyrrolidin-3-yl]amino}methyl)pyridine-4-carboxylic acid], for which the IC50 in assay [1] was above 50 µM; in assay [2] it was 1 to 50 µM.

Take `O=C(CNCc1cc(C(=O)O)ccn1)NC1CCN(CCCc2ccccc2)CC1` [drawing 317, 2-{[({[1-(3-phenylpropyl)piperidin-4-yl]carbamoyl}methyl)amino]methyl}pyridine-4-carboxylic acid]: the IC50 in assay [1] and in assay [2] was above 50 µM in each case.

As to `O=C(CNCc1cc(C(=O)O)ccn1)NC1CCN(Cc2ccco2)CC1` [drawing 318, 2-{[({[1-(furan-2-ylmethyl)piperidin-4-yl]carbamoyl}methyl)amino]methyl}pyridine-4-carboxylic acid], the IC50 in assay [1] and in assay [2] was above 50 µM throughout.

For `O=C(CNCc1cc(C(=O)O)ccn1)NC1CCN(Cc2ccc(-c3ccccc3)o2)CC1` [drawing 319, 2-({[({1-[(5-phenylfuran-2-yl)methyl]piperidin-4-yl}carbamoyl)methyl]amino}methyl)pyridine-4-carboxylic acid], the IC50 in assay [1] and in assay [2] was above 50 µM in each case.

These data come from patent US10221139B2, “Inhibitors of histone demethylases” (Gilead Sciences, Inc., priority 2012, dated 2019).
